For data set [1] the following is noted: route (IV or PO); cited from earlier work.
In data set [2] the target is T1, cytidine deaminase (Homo sapiens, UniProt P32320).
T1 construct: for the enzyme purified from human liver; from tissue; host or cells: human liver
To be noted: cited from earlier work; for Km: enzyme purified from human liver.

In data set [3] the test system is B16 melanoma model. The note with it: oral administration at 600 mg/kg/d; cited from earlier work.
Data set [4] concerns BxPC3 pancreatic cancer cell line. As to the kind of experiment: Tumor growth inhibition in BxPC3 xenograft model, PEGPH20, nab-paclitaxel and/or gemcitabine. The format is in vivo, mouse. As for the experimental part:
The human pancreatic cancer xenograft model described in Example 1 was used to evaluate the antitumor effects of PEGPH20 and nab-paclitaxel combination therapy in further combination with gemcitabine treatment. Prior to performing the study, a route and dose level for gemcitabine was selected based. […] The results are depicted in FIG. 2. […] Gemcitabine was administered intraperitoneally 24 hours after PEGPH20 and/or nab-paclitaxel every 7 days for three weeks of the dose cycle. […] The results are depicted in FIG. 3. […] Table 6 depicts the results as the percentage growth inhibition relative to vehicle as determined from tumor volume measurements at day 26.

In data set [5] the test system is carcinoembryonic antigen (CEA). As to the kind of experiment: Serum CEA tumor biomarker ELISA in BxPC3 xenograft model. To be noted: day 20 of first dosing cycle. The format is in vivo, mouse. As for the experimental part: (§1) Biomarkers carbohydrate antigen 19-9 (CA19-9) and carcinoembryonic antigen (CEA) associated with pancreatic cancer were tested to measure therapeutic response. Animals were treated as described in part A. Serum was collected from satellite animals (n≤3) from each group on day 0, 6, 13 and 20 of the first dosing cycle. Human CA19-9 was measured using a CA 19-9 ELISA kit (Catalog No. CA199T, Calbiotech, Spring Valley, Calif.) and CEA tumor antigen was measured using a CEA ELISA kit (Catalog No. CE062T, Calbiotech, Spring Valley, Calif.).

Data set [6] relates to carbohydrate antigen 19-9 (CA19-9). As to the kind of experiment: Serum CA19-9 tumor biomarker ELISA in BxPC3 xenograft model. The class given is in vivo, mouse. To be noted: day 20 of first dosing cycle. As for the experimental part: as §1
Data set [7] deals with BxPC3 pancreatic cancer cell line. As to the kind of experiment: Median survival time to endpoint in BxPC3 xenograft model. The format is in vivo, mouse. To be noted: three four-week dosing cycles; PEGPH20 4.5 mg/mL, nab-paclitaxel 10 mg/kg, gemcitabine 180 mg/kg; endpoint tumor >2000 mm^3, >20% bodyweight loss, duress or death. As for the experimental part: Following the first four week dosing cycle as set forth in part A, the dosing cycle was repeated two times and time to survival endpoint was followed over time. Briefly, in each dosing cycle, animals were treated with vehicle or PEGPH20 (4.5 mg/mL) with or without nab-paclitaxel (10 mg/kg) intravenously twice a week for four weeks. In each cycle, groups receiving gemcitabine were administered gemcitabine (180 mg/kg) 24 hours after PEGPH20 and/or nab-paclitaxel every 7 days for three weeks of the dose cycle. Time to survival endpoint, a surrogate of animal survival, was defined as (a) time to tumor volume of greater than 2000 mm^3, (b) time to a greater than 20% bodyweight loss, or (c) time to animal duress or death.

For data set [8] the following is noted: rapid deamination by deoxycytidine deaminase to dFdU; cited from earlier work.
In data set [9] the test system is pancreatic cancer. The note with it: cited from earlier work.

Results on seven compounds are retold here after patent publication US20190083449A1, “COMBINATION THERAPY WITH AN ANTI-HYALURONAN AGENT AND THERAPEUTIC AGENT” (Halozyme, Inc., priority 2012, published 2019).

T1 sequence (P32320 whole entry): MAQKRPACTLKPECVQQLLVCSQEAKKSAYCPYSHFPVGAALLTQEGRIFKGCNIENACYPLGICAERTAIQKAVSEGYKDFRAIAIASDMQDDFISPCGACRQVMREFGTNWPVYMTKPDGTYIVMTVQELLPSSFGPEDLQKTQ

With `C[C@]12C=CC(=O)C=C1CC[C@@H]1[C@@H]2[C@@H](O)C[C@@]2(C)[C@H]1CC[C@]2(O)C(=O)CO` [Prednisolone], the “Equivalent Potency” value in data set [1] is given as 5 mg.
With `C[C@]12CCC(=O)C=C1CC[C@@H]1[C@@H]2[C@@H](O)C[C@@]2(C)[C@H]1CC[C@]2(O)C(=O)CO` [Hydrocortisone], the “Equivalent Potency” value in data set [1] is reported as 20 mg.
On to `C[C@H]1C[C@@H]2[C@H]([C@@H](O)C[C@@]3(C)[C@H]2CC[C@]3(O)C(=O)COC(=O)CCC(=O)O)[C@@]2(C)C=CC(=O)C=C12` [Methylprednisolone sodium succinate], for which the “Equivalent Potency” value in data set [1] is recorded as 4 mg.
`Nc1ncn([C@H]2C[C@H](O)[C@@H](CO)O2)c(=O)n1` [decitabine, 5-aza-2′-deoxycytidine]: the Km in data set [2] is 250 µM.
Regarding `Cc1cc(=O)oc2cc(O)ccc12` [4-MU, 7-hydroxy-4-methylcoumarin], the reduction of metastases in [3] was 64%.
For the compound `Nc1ccn([C@H]2C[C@H](O)[C@@H](CO)O2)c(=O)n1` [deoxycytidine], the “rate of deamination relative to decitabine” value in data set [2] (at equal concentrations) is “about 6 fold”. Further, the Km in data set [2] was 12 µM.
Take `Nc1ccn([C@@H]2O[C@H](CO)[C@@H](O)C2(F)F)c(=O)n1` [gemcitabine, 2′-deoxy-2′,2′-difluorocytidine]: the “Tumor Growth Inhibition (% of vehicle control)” value in [4] (day 26, PEGPH20 4.5 mg/kg i.v. 2x/wk, nab-paclitaxel 10 mg/kg i.v. 2x/wk, gemcitabine 180 mg/kg i.p. weekly) was 25%. Further, in data set [4] (four week dose cycle, FIG. 3), the “antitumor activity (in words)” value is given as “some antitumor activity”. The “tumor growth compared to vehicle only (in words)” value in data set [4] (gemcitabine 60, 120, 180 and 240 mg/kg once a week (day 0, 7, 14, 21)) is on record as “inhibited tumor growth at all doses tested”. The “level of CEA marker in serum” value in [5] is reported as “approximately 15 ng/mL”. Also, the “level of CA19-9 marker in serum” value in data set [6] is recorded as “approximately similar to vehicle only control”. The “Median Survival Time” value in data set [7] came out at 38 days. The half-life in plasma result in data set [8] was “approximately 10 minutes”. In [9] (adjuvant setting), the “survival compared to patients who had surgery alone” value is “increased survival by two months”. Further, in data set [9] (gemcitabine monotherapy), the median survival entry is reported as “over 5 months”.
